Laboratory results taken from ChEMBL document CHEMBL1201862, “PubChem BioAssay data set” (2004).
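Protocol summary: plate cells (96-well), add compound at 5 concentrations, incubate 48 h, interpolate endpoints linearly. Here, GI50 denotes the concentration required for 50% inhibition of growth.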 Active and inactive are the calls of the source. Cut-off read from the data, not from the text of the source: active = GI50 up to about 1.1 µM and inactive = higher.

Legend:
Experiment in all cases: DTP human tumour cell line panel, 48 h
SW-620 = system: SW-620
RPMI-8226 = system: RPMI-8226
NCI-H460 = system: NCI-H460
MCF7 = system: MCF7
NCI-H522 = system: NCI-H522
OVCAR-5 = system: OVCAR-5
UO-31 = system: UO-31
786-0 = system: 786-0
HCT-116 = system: HCT-116
SK-MEL-2 = system: SK-MEL-2
IGROV-1 = system: IGROV-1
DU-145 = system: DU-145
HOP-62 = system: HOP-62
UACC-257 = system: UACC-257
SNB-19 = system: SNB-19
Malme-3M = system: Malme-3M
KM12 = system: KM12
MDA-MB-435 = system: MDA-MB-435
COLO 205 = system: COLO 205
ACHN = system: ACHN

| SMILES | GI50 (SW-620) | GI50 (RPMI-8226) | GI50 (NCI-H460) | GI50 (MCF7) | GI50 (NCI-H522) | GI50 (OVCAR-5) | GI50 (UO-31) | GI50 (786-0) | GI50 (HCT-116) | GI50 (SK-MEL-2) | GI50 (IGROV-1) | GI50 (DU-145) | GI50 (HOP-62) | GI50 (UACC-257) | GI50 (SNB-19) | GI50 (Malme-3M) | GI50 (KM12) | GI50 (MDA-MB-435) | GI50 (COLO 205) | GI50 (ACHN) |
| --- | --- | --- | --- | --- | --- | --- | --- | --- | --- | --- | --- | --- | --- | --- | --- | --- | --- | --- | --- | --- |
| S=C=NCc1ccccc1 [BENZYL ISOTHIOCYANATE] | 2.35 µM (inactive) | 0.456 µM (active) | 6.27 µM (inactive) | 3.23 µM (inactive) | 1.22 µM (inactive) | 10.9 µM (inactive) | 2.72 µM (inactive) | 0.422 µM (active) | 0.604 µM (active) | 6.35 µM (inactive) | 2.51 µM (inactive) | 4.13 µM (inactive) | 3.05 µM (inactive) | 3.15 µM (inactive) | 4.71 µM (inactive) | 3.1 µM (inactive) | 0.895 µM (active) | 2.16 µM (inactive) | 1.51 µM (inactive) | 3.99 µM (inactive) |
| CCCCCC(=O)Nc1[nH]nnc1C#N | > 100 µM (inactive) | > 100 µM (inactive) | > 100 µM (inactive) | > 100 µM (inactive) | > 100 µM (inactive) | > 100 µM (inactive) | > 100 µM (inactive) | > 100 µM (inactive) | > 100 µM (inactive) | > 100 µM (inactive) | > 100 µM (inactive) | > 100 µM (inactive) | > 100 µM (inactive) | > 100 µM (inactive) | > 100 µM (inactive) | > 100 µM (inactive) | > 100 µM (inactive) | > 100 µM (inactive) | > 100 µM (inactive) | > 100 µM (inactive) |
| COc1cc2c(cc1OC)C(=O)/C(=C/c1cc(Cl)cc(Cl)c1)C2 | 3.79 µM (inactive) | 4.94 µM (inactive) | 4.73 µM (inactive) | 2.99 µM (inactive) | 2.04 µM (inactive) | > 34.1 µM (inactive) | > 100 µM (inactive) | 4.73 µM (inactive) | 3.58 µM (inactive) | 23.5 µM (inactive) | 2.65 µM (inactive) | 10.6 µM (inactive) | 9.35 µM (inactive) | 26 µM (inactive) | > 26.4 µM (inactive) | 8.51 µM (inactive) | 1.38 µM (inactive) | 1.7 µM (inactive) | 6.21 µM (inactive) | 7.91 µM (inactive) |
| O=c1c2ccccc2oc2nc3n(c(=O)c12)CCCS3 | > 100 µM (inactive) | > 100 µM (inactive) | > 100 µM (inactive) | > 100 µM (inactive) | > 100 µM (inactive) | > 100 µM (inactive) | 15.7 µM (inactive) | > 100 µM (inactive) | > 100 µM (inactive) | > 100 µM (inactive) | > 100 µM (inactive) | > 100 µM (inactive) | > 100 µM (inactive) | > 100 µM (inactive) | > 100 µM (inactive) | > 100 µM (inactive) | > 100 µM (inactive) | > 100 µM (inactive) | > 100 µM (inactive) | > 100 µM (inactive) |
| NC(=O)c1nnsc1N/N=C/c1ccc([N+](=O)[O-])cc1 | > 100 µM (inactive) | > 100 µM (inactive) | > 100 µM (inactive) | > 100 µM (inactive) | > 100 µM (inactive) | > 100 µM (inactive) | 77.1 µM (inactive) | 41 µM (inactive) | > 100 µM (inactive) | > 100 µM (inactive) | > 100 µM (inactive) | > 100 µM (inactive) | > 100 µM (inactive) | > 100 µM (inactive) | > 100 µM (inactive) | > 100 µM (inactive) | > 100 µM (inactive) | 76.9 µM (inactive) | > 100 µM (inactive) | > 100 µM (inactive) |
| COc1ccc(CNc2ccn(C3OC(CO)C(O)C3O)c(=O)n2)cc1 (stereo not given) | > 100 µM (inactive) | 86.9 µM (inactive) | 78.7 µM (inactive) | 72.9 µM (inactive) | 70.1 µM (inactive) | > 100 µM (inactive) | 81.7 µM (inactive) | > 100 µM (inactive) | 55.5 µM (inactive) | > 100 µM (inactive) | > 100 µM (inactive) | > 100 µM (inactive) | > 100 µM (inactive) | 49.8 µM (inactive) | > 100 µM (inactive) | > 100 µM (inactive) | 45.9 µM (inactive) | 44.8 µM (inactive) | > 100 µM (inactive) | > 100 µM (inactive) |
| Cn1c(-c2ccccc2)cc2c3ccsc3c3ccsc3c21 | > 100 µM (inactive) | > 100 µM (inactive) | 53.1 µM (inactive) | 4.75 µM (inactive) | > 100 µM (inactive) | > 100 µM (inactive) | > 100 µM (inactive) | 79.3 µM (inactive) | > 100 µM (inactive) | > 100 µM (inactive) | > 100 µM (inactive) | > 100 µM (inactive) | > 100 µM (inactive) | > 100 µM (inactive) | > 100 µM (inactive) | > 100 µM (inactive) | 16.1 µM (inactive) | > 100 µM (inactive) | > 100 µM (inactive) | > 100 µM (inactive) |
| O=C1C[C@@H](Sc2ccccc2)C2(OCCO2)C2ON3CCCC[C@H]3[C@H]12 (stereo not given in full) | 3.63 µM (inactive) | 3.07 µM (inactive) | 9.66 µM (inactive) | 6.32 µM (inactive) | 2.15 µM (inactive) | 17.7 µM (inactive) | 3.75 µM (inactive) | 3.53 µM (inactive) | 4.33 µM (inactive) | 18.1 µM (inactive) | 5.48 µM (inactive) | 12.1 µM (inactive) | 16.5 µM (inactive) | 14.2 µM (inactive) | 10.5 µM (inactive) | 8.41 µM (inactive) | 4.48 µM (inactive) | 11.7 µM (inactive) | 7.8 µM (inactive) | 2.49 µM (inactive) |
| Cn1c(-c2ccc(C=O)o2)ccc1-c1ccc(C=O)o1 | 35.4 µM (inactive) | 57.1 µM (inactive) | > 100 µM (inactive) | 28.8 µM (inactive) | 1.68 µM (inactive) | > 100 µM (inactive) | 35.3 µM (inactive) | 61.1 µM (inactive) | 18.4 µM (inactive) | > 100 µM (inactive) | 36.9 µM (inactive) | 49.4 µM (inactive) | 45.3 µM (inactive) | 51.4 µM (inactive) | 54.8 µM (inactive) | 31.7 µM (inactive) | 36.2 µM (inactive) | 38.6 µM (inactive) | 87.7 µM (inactive) | 31.7 µM (inactive) |
| O=[N+]([O-])c1cc2c(c3nonc13)OCCCCO2 | 5.86 µM (inactive) | 3.7 µM (inactive) | 3.76 µM (inactive) | 7.76 µM (inactive) | 4.39 µM (inactive) | 12.1 µM (inactive) | 4.19 µM (inactive) | 2.02 µM (inactive) | 1.75 µM (inactive) | 13.8 µM (inactive) | 9.16 µM (inactive) | 15 µM (inactive) | 4.37 µM (inactive) | 15.5 µM (inactive) | 13.4 µM (inactive) | 3.66 µM (inactive) | 4.37 µM (inactive) | 5.25 µM (inactive) | 4.95 µM (inactive) | 6.22 µM (inactive) |
